Assay results from US12358892B2, “Metalloenzyme inhibitors for treating cancers, Alzheimer's disease, hemochromatosis, and other disorders” (Miralogx LLC, priority 2020, dated 2025).
“Also recorded” adds a separate entry of the source.

Legend:
[1] = test system: NCI-H1299 NSCLC cell line; experiment: BioMAP Oncology NSCLC panel (StroNSCLC and VascNSCLC systems); type: cell-based, human
From the text: The BioMAP® oncology system used in this Example is a coculture of primary human immune cells with primary tissue cells in the presence of the NSCL cells. In particular, The BioMAP® Oncology NSCLC panel models the interactions between the immune-stromal (fibroblasts) and immune-vascular (endothelial cells) environments in the context of non-small lung cancer (NCI-H1299 NSCLC cell line). The interactions between tumor cells, stimulated immune cells (peripheral blood mononuclear cells [PBMC]), and the host stromal network (human neonatal dermal fibroblasts [HDFn]) are captured in the StroNSCLC system. In parallel, the VascNSCLC system captures the interactions between tumor cells, activated immune cells and the vascular tissue (human umbilical vein endothelial cells [HUVEC]). The biomarkers selected for the BioMAP® Non-small Cell Lung Cancer (NSCLC) panel inform on activities related to inflammation, immune-function, tissue remodeling and metastasis in the context of a host tumor-microenvironment.
(§1) A signature BioMAP® profile that is reflective of the changes in protein biomarker readouts within an individual system is generated for each test agent. Biomarker readouts selected for therapeutic and biological relevance are predictive for disease outcomes or specific drug effects, and have been validated using agents with known clinical efficacy. Each readout is measured quantitatively by immune-based receptors, cytokines, chemokines, matrix molecules and enzymes. In total, the 42 biomarker readouts in the NSCLC panel capture the biological changes that occur within the physiological context of each particular BioMAP® system.
The BioMAP® Non-small Cell Lung Cancer (NSCLC) panel allows a focused in vitro evaluation of the impact of an agent in a model system that includes the hierarchical signaling networks that exist between interacting pathways and cells in a disease relevant setting. To represent the changes that are occurring in these complex systems, biomarker readouts with the ability to integrate and distinguish changes in different regulatory networks have been selected.
(§2) Data analysis of the results was performed as described in detail above in Example 3.1. Briefly, biomarker activities are annotated when at least one concentration of the test agent is outside of the significance envelope with an effect size >20% compared to the vehicle control (|log 10 ratio|>0.1) and a p-value <0.01. Cytotoxic conditions are noted when total protein levels decrease by more than 50% (log 10 ratio of SRB <−0.3). Biomarker key activities are described as modulated if these activities increase in some systems, but decrease in others.

[2] = test system: HT-29 colorectal adenocarcinoma cell line; experiment: BioMAP Oncology CRC panel (StroHT29 and VascHT29 systems); type: cell-based, human
From the text: The BioMAP® oncology system used in this Example is a coculture of primary human immune cells with primary tissue cells in the presence of the Colorectal Cancer (CRC) cells. In particular, The BioMAP® Oncology CRC panel models the interactions between the immune-stromal (fibroblasts) and immune-vascular (endothelial cells) environments in the context of colorectal cancer (HT-29 colorectal adenocarcinoma cell line). The interactions between tumor cells, stimulated immune cells (peripheral blood mononuclear cells [PBMC]), and the host stromal network (human neonatal dermal fibroblasts [HDFn]) are captured in the StroHT29 system. In parallel, the VascHT29 system captures the interactions between tumor cells, activated immune cells and the vascular tissue (human umbilical vein endothelial cells [HUVEC]). The biomarkers selected for the BioMAP® Colorectal Cancer (CRC) panel inform on activities related to inflammation, immune-function, tissue remodeling and metastasis in the context of a host tumor-microenvironment.
as §1, with “41” for “42”, “CRC” for “NSCLC”
The BioMAP® CRC panel allows a focused in vitro evaluation of the impact of an agent in a model system that includes the hierarchical signaling networks that exist between interacting pathways and cells in a disease relevant setting. To represent the changes that are occurring in these complex systems, biomarker readouts with the ability to integrate and distinguish changes in different regulatory networks have been selected.
as §2

[3] = 7.4 μM, 22 μM, 67 μM, Angiogenesis related activities
[4] = 7.4 μM, 22 μM, 67 μM, Immune-related activities
[5] = 7.4 μM, 22 μM, 67 μM, Inflammation related activities
[6] = 7.4 μM, 22 μM, 67 μM, Matrix remodeling activities
[7] = 7.4 μM, 22 μM, 67 μM, Tumor-related activities

C1=NC(c2cncc(C3CCC=N3)c2)CC1 (stereo not shown) [3,5-bis(3,4-dihydro-2H-pyrrol-2-yl)pyridine]
Decreased activity: uPA [1, 3]: decreased and uPA
Increased activity: tPA [1, 3]: increased and tPA
Decreased Activity: sIL-6 [1, 4]: decreased
Decreased activity: sGranB [1, 4]: decreased; also recorded: sGranB
Decreased activity: sIFNγ [1, 4]: decreased; also recorded: SIFNG
Decreased activity: sIL-2 [1, 4]: decreased
Decreased activity: sIL-4 [1, 4]: decreased; also recorded: SIL-4
Decreased activity: sIL-10 [1, 4]: decreased
Decreased activity: sIL-13 [1, 4]: decreased
Decreased activity: sIL-17A [1, 4]: decreased; also recorded: SIL-17A
Decreased Activity: sTNFα [1, 5]: decreased; also recorded: STNFa
Decreased activity: VCAM-1 [1, 5]: decreased; also recorded: VCAM-1
Decreased activity: sMDC [1, 5]: decreased
Increased activity: IP-10 [1, 5]: increased; also recorded: IP-10
Increased activity: Collagen III [1, 6]: increased; also recorded: Col-III
Increased activity: EGFR [1, 6]: increased and EGFR
Increased activity: HGF [1, 6]: increased and HGF
annotated readouts ([1]; BioMAP Oncology NSCLC Panel): 21
annotated activities ([1]; StroNSCLC system): 16
annotated activities ([1]; VascNSCLC system): five
cytotoxicity ([1]; at 200 μM): cytotoxic
cytotoxicity in the VascNSCLC system ([1]; at 200 μM, VascNSCLC system): detectable cytotoxicity
Decreased activity: PAI-I [2, 3]: decreased; also recorded: PAI-I
Decreased activity: tPA [2, 3]: decreased and tPA
Decreased activity: uPA [2, 3]: decreased and uPA
Increased activity: sVEGF [2, 3]: increased; also recorded: SVEGF
Decreased Activity: sIL-6 [2, 4]: decreased
Decreased activity: CD40 [2, 4]: decreased and CD40
Decreased activity: CD69 [2, 4]: decreased and CD69
Decreased activity: sGranB [2, 4]: decreased; also recorded: sGranB
Decreased activity: sIFNγ [2, 4]: decreased; also recorded: SIFNG
Decreased activity: sIL-2 [2, 4]: decreased; also recorded: sIL-2
Decreased activity: sIL-10 (Table 8) / sIL-1β [2, 4]: decreased
Decreased activity: sIL-17A [2, 4]: decreased
Decreased activity: IP-10 [2, 5]: decreased; also recorded: IP-10
Decreased activity: MCP-1 [2, 5]: decreased; also recorded: MCP-1
Decreased activity: MIG [2, 5]: decreased and MIG
Decreased activity: VCAM-1 [2, 5]: decreased; also recorded: VCAM-1
Decreased activity: Collagen I [2, 6]: decreased; also recorded: Col-I
Decreased activity: Collagen III [2, 6]: decreased and Col-
Decreased activity: Collagen IV [2, 6]: decreased; also recorded: Col-IV
Decreased activity: MMP9 [2, 6]: decreased and MMP9
Decreased activity: TIMP2 [2, 6]: decreased; also recorded: TIMP2
Decreased activity: CEACAM5 [2, 7]: decreased; also recorded: CEACAM5
Decreased activity: Keratin 20 [2, 7]: decreased
cytotoxicity ([2]; at 200 μM): cytotoxic
